Reference: PMC6272887, “Discovery of Potent c-MET Inhibitors with New Scaffold Having Different Quinazoline, Pyridine and Tetrahydro-Pyridothienopyrimidine Headgroups” (Molecules, 2016)

Tests used:
EGFR = target: T1, EGFR (Homo sapiens, UniProt P00533); assay: In vitro kinase assay (HTScan EGFR Kinase Assay Kit); assay type: biochemical; details: for IC50: ATP 10 µM, read-out: Enzyme, IC50, µM EGFR; for selectivity against EGFR: relative to c-MET
T1 construct: purchased Cell Signaling Technology, Inc
T1 sequence (P00533 25-1210): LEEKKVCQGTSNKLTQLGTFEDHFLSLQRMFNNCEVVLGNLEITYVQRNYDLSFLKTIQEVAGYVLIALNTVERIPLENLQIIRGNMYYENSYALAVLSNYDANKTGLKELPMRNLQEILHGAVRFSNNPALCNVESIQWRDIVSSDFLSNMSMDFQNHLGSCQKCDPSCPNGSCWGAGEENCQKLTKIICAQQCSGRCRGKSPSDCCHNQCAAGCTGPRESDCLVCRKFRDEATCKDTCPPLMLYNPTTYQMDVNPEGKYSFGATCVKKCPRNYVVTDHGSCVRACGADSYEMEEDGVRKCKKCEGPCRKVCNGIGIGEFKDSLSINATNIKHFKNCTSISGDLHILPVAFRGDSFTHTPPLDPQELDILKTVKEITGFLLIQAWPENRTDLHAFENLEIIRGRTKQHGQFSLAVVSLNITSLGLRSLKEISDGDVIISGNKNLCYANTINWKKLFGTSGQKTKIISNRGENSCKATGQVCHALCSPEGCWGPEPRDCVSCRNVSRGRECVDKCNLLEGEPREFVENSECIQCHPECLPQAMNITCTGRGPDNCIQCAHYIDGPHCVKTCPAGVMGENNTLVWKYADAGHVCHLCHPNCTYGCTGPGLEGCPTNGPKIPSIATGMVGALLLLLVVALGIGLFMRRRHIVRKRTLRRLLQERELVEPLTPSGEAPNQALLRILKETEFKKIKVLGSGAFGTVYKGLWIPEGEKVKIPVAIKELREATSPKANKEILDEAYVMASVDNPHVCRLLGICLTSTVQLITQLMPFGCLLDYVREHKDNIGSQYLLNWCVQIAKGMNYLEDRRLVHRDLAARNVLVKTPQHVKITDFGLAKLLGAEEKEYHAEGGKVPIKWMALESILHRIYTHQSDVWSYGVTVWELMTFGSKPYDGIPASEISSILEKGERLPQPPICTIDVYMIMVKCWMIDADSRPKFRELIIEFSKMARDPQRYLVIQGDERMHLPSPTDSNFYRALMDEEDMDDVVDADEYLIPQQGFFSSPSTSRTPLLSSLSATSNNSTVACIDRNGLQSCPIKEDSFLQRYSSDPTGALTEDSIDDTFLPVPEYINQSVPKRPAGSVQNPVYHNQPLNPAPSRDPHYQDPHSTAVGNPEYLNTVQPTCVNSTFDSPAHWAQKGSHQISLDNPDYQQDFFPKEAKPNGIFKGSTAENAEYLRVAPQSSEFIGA
Method: (§1) In vitro kinase inhibitory ability was determined using HTScan MET Kinase Assay Kit, HTScan VEGF Receptor 2 Kinase Assay Kit, HTScan c-Kit Kinase Assay Kit, HTScan PDGF Receptor β Kinase Assay Kit and HTScan EGFR Kinase Assay Kit(purchased from Cell Signaling Technology, Inc. Danvers, MA, USA) by colorimetric ELISA assay according to the manufacturer’s instructions. Briefly, reaction cocktail containing recombinant human MET kinase or other kinases were incubated with various concentrations of tested compounds or DMSO (0.1%) for 5 min at room temperature, and then ATP/substrate peptide cocktail was added to the pre-incubated reaction cocktail. After incubation at room temperature for 30 min, the reaction was stopped and transferred to a 96-wellstreptavidin-coated plate, and incubated for 1 h at room temperature. Primary antibody (phosphorylated tyrosine monoclonal antibody (pTyr-100), 1:1000 in PBS/T with 1% bovine serum albumin (BSA)) was added into per well until the wells were washed thrice with PBS/T. After incubated at room temperature for 1 h, phosphorylation of the substrate was monitored with HRP-labeled anti-mouse IgG antibody (1:500 in PBS/T with 1% BSA), followed by a chromogenic reaction. Finally, the kinase assay was detected at 450 nm with microplate reader. The reaction processed with only DMSO (0.1%) served as a vehicle control. […] The kinase assay was performed thrice independently.

PDGFR-b = target: T2, PDGFR-b (Homo sapiens, UniProt P09619); assay: In vitro kinase assay (HTScan PDGF Receptor β Kinase Assay Kit); assay type: biochemical; details: for IC50: ATP 10 µM, read-out: Enzyme, IC50, µM PDGFR-b; for selectivity against PDGFR-b: relative to c-MET
T2 construct: purchased Cell Signaling Technology, Inc
T2 sequence (P09619 33-1106): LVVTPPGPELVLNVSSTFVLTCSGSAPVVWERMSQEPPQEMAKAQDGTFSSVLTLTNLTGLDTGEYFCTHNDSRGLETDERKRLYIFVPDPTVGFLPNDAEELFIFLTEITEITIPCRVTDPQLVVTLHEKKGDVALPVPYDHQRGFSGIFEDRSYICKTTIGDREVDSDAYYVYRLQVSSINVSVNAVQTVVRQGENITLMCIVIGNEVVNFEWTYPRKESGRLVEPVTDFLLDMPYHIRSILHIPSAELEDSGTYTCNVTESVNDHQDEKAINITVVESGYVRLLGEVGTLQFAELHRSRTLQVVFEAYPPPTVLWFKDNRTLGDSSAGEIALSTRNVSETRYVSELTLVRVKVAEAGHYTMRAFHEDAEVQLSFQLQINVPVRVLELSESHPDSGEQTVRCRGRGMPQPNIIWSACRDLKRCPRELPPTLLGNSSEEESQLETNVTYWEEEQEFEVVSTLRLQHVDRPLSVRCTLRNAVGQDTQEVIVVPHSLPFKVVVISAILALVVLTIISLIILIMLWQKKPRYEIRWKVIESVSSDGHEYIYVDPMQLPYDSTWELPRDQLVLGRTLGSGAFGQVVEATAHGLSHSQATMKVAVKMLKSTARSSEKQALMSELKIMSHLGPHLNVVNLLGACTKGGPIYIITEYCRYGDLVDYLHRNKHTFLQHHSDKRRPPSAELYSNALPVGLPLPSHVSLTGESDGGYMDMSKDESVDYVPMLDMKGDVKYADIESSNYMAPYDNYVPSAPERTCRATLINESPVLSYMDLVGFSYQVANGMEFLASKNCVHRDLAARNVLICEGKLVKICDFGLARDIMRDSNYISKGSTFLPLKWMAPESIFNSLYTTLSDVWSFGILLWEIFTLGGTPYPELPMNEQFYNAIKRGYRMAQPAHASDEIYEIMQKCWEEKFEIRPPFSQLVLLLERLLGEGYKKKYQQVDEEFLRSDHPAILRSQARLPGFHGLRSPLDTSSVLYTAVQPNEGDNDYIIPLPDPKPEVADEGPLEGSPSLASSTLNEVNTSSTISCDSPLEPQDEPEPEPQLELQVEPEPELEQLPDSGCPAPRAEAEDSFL
Method: as §1

VEGFR-2 = target: T3, VEGFR-2 (Homo sapiens, UniProt P35968); assay: In vitro kinase assay (HTScan VEGF Receptor 2 Kinase Assay Kit); assay type: biochemical; details: ATP 10 µM; read-out: Enzyme, IC50, µM VEGFR-2
T3 construct: purchased Cell Signaling Technology, Inc
T3 sequence (P35968 20-1356): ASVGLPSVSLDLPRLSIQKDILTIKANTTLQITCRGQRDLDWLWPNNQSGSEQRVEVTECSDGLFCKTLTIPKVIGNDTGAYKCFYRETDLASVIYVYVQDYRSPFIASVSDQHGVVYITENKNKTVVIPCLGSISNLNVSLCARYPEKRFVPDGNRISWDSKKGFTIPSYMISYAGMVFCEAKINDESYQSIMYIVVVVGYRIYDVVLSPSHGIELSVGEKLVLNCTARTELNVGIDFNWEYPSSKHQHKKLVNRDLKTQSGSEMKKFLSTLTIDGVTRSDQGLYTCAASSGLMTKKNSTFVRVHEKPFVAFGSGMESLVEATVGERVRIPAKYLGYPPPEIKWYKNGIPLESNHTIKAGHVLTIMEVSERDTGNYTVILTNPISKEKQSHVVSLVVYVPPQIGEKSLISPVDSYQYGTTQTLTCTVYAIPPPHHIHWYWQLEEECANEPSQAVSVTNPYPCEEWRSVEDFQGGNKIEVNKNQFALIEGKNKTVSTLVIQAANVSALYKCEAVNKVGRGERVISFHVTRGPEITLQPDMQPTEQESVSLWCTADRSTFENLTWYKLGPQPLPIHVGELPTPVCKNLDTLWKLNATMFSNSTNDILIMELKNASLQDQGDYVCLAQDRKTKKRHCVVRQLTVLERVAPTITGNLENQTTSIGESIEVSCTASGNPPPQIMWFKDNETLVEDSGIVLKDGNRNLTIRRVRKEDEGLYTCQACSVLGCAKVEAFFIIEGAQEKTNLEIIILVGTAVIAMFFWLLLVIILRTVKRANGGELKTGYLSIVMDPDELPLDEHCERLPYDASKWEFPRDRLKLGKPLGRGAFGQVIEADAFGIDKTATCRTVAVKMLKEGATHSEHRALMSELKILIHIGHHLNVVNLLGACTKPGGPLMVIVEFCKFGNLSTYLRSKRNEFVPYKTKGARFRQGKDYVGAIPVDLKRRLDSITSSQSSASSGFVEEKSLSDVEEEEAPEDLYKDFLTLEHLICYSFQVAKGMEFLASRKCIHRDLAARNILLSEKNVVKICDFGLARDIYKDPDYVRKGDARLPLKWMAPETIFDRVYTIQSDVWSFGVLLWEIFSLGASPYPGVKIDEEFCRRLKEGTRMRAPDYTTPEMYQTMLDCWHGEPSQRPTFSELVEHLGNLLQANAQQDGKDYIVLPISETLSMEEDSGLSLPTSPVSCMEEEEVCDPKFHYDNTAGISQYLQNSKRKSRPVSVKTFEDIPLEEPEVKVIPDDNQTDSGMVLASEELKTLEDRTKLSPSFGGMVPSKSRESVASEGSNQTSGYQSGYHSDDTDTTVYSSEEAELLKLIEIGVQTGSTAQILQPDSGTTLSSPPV
Method: In vitro kinase inhibitory ability was determined using HTScan MET Kinase Assay Kit, HTScan VEGF Receptor 2 Kinase Assay Kit, HTScan c-Kit Kinase Assay Kit, HTScan PDGF Receptor β Kinase Assay Kit and HTScan EGFR Kinase Assay Kit(purchased from Cell Signaling Technology, Inc. Danvers, MA, USA) by colorimetric ELISA assay according to the manufacturer’s instructions. Briefly, reaction cocktail containing recombinant human MET kinase or other kinases were incubated with various concentrations of tested compounds or DMSO (0.1%) for 5 min at room temperature, and then ATP/substrate peptide cocktail was added to the pre-incubated reaction cocktail. After incubation at room temperature for 30 min, the reaction was stopped and transferred to a 96-wellstreptavidin-coated plate, and incubated for 1 h at room temperature. Primary antibody (phosphorylated tyrosine monoclonal antibody (pTyr-100), 1:1000 in PBS/T with 1% bovine serum albumin (BSA)) was added into per well until the wells were washed thrice with PBS/T. After incubated at room temperature for 1 h, phosphorylation of the substrate was monitored with HRP-labeled anti-mouse IgG antibody (1:500 in PBS/T with 1% BSA), followed by a chromogenic reaction. Finally, the kinase assay was detected at 450 nm with microplate reader. The reaction processed with only DMSO (0.1%) served as a vehicle control. […]

c-Kit = target: T4, c-Kit (Homo sapiens, UniProt P10721); assay: In vitro kinase assay (HTScan c-Kit Kinase Assay Kit); assay type: biochemical; details: for IC50: ATP 10 µM, read-out: Enzyme, IC50, µM c-Kit; for selectivity against c-Kit: relative to c-MET
T4 construct: purchased Cell Signaling Technology, Inc
T4 sequence (P10721 26-976): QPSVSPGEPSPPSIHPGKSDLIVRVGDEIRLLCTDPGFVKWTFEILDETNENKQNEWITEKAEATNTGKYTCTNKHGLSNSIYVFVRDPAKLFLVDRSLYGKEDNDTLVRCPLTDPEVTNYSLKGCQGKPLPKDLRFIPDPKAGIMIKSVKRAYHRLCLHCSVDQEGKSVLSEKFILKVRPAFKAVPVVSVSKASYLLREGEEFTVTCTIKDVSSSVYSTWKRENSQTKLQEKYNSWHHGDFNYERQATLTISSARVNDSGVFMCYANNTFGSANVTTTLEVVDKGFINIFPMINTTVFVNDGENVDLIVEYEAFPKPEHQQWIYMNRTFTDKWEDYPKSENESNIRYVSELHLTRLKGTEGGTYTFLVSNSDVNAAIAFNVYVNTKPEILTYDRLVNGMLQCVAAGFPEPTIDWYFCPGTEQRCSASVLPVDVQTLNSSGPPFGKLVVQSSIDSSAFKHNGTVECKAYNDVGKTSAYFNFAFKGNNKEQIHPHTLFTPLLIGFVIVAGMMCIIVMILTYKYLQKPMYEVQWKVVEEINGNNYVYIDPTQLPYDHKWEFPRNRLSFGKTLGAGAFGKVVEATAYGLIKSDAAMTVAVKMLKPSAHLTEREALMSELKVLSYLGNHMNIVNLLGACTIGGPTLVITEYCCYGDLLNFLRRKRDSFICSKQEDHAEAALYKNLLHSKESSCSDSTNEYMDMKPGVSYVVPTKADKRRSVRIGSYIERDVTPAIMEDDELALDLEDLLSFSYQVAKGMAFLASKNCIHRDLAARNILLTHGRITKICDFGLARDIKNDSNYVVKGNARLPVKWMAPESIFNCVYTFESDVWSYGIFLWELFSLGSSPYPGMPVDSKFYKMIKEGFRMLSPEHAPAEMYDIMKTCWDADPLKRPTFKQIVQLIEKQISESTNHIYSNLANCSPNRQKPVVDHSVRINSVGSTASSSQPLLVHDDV
Method: as §1

[1] = system: HeLa (human cervical carcinoma); assay: Cell proliferative assay (MTT), HeLa; assay type: cell-based; details: Homo sapiens, HeLa, HeLa cells, read-out: Proliferative Inhibition (IC50, µM) HeLa
Method: (§2) The anti-proliferative activities of synthesized compounds against HeLa, Hep-G2 and MCF-7 cells were evaluated by MTT assay. HeLa cells were grown to log phase in RPMI 1640 medium supplemented with 10% fetal bovine serum. Hep-G2 and MCF-7 cells were grown to log phase in DMEM medium supplemented with 10% fetal bovine serum. After diluting to […] with the complete medium, 100 µL of the obtained cell suspension was added to each well of 96-well culture plates. The subsequent incubation was permitted at 37 °C, 5% CO2 atmosphere for 48 h before the anti-proliferative assessments. Tested samples at pre-set concentrations were added to 6 wells. Before the anti-proliferative assessments, 20 µL of PBS containing 2.5 mg∙mL^−1 of MTT was added to each well. Four h later, 100 µL extraction solution (DMSO) was added to each well and the optical density was measured at a wavelength of 570 nm on an ELISA microplate reader.

[2] = system: Hep-G2 (human liver cancer); assay: Cell proliferative assay (MTT), Hep-G2; assay type: cell-based; details: Homo sapiens, HepG2, Hep-G2 cells, read-out: Proliferative Inhibition (IC50, µM) Hep-G2
Method: as §2

[3] = system: MCF-7 (human breast cancer); assay: Cell proliferative assay (MTT), MCF-7; assay type: cell-based; details: Homo sapiens, MCF7, MTT assay, MCF-7 cells; read-out: Proliferative Inhibition (IC50, µM) MCF-7
Method: as §2

c-MET [4] = target: T5, c-MET (Homo sapiens, UniProt P08581); assay: In vitro kinase assay (HTScan MET Kinase Assay Kit, colorimetric ELISA); assay type: biochemical; details: ATP 10 µM; three independent determinations; read-out: Enzymatic Inhibition (IC50, µM) c-MET
T5 construct: purchased Cell Signaling Technology, Inc
Method: as §1

c-MET [5] = system: c-MET; parameters: method as in PMID 19896842, PMID 24485123, PMID 23041435; details: cell-free assays; cited from earlier work

## COc1cc2ncnc(Oc3ccc(NC(=O)C4(C(=O)Nc5ccc(F)cc5)CC4)cc3F)c2cc1OC [Compound 13b]
EGFR
  IC50: > 10 µM
  selectivity against EGFR: > 500 fold
PDGFR-b
  IC50: > 10 µM
  selectivity against PDGFR-b: > 500 fold
VEGFR-2
  IC50: 0.1 ± 0.02 µM
c-Kit
  IC50: 4.3 ± 0.11 µM
  selectivity against c-Kit: 215 fold
[1]
  IC50: 4.7 ± 0.11 µM
[2]
  IC50: 12.8 ± 0.28 µM
[3]
  IC50: 1.2 ± 0.21 µM
c-MET [4]
  IC50: 0.02 µM
other
  melting point: 180 to 182 °C

## CC(C)(C)OC(=O)N1CCc2c(sc3ncnc(Oc4ccc(NC(=O)C5(C(=O)Nc6ccc(F)cc6)CC5)cc4F)c23)C1 [Compound 13h, tert-butyl-4-{2-fluoro-4-(1-((4-fluorophenyl)carbamoyl)cyclopropanecarboxamido)phenoxy}-5,6-dihydropyrido(4’,3’:4,5)thieno(2,3-d)pyrimidine-7(8H)-carboxylate]
EGFR
  IC50: > 10 µM
  selectivity against EGFR: > 200 fold
PDGFR-b
  IC50: 7.2 ± 0.1 µM
  selectivity against PDGFR-b: 144 fold
VEGFR-2
  IC50: 0.25 ± 0.02 µM
c-Kit
  IC50: 5.2 ± 0.09 µM
  selectivity against c-Kit: 104 fold
[1]
  IC50: 4.6 ± 0.03 µM
[2]
  IC50: 1.7 ± 0.04 µM
[3]
  IC50: 2.8 ± 0.23 µM
c-MET [4]
  IC50: 0.05 ± 0.01 µM
other
  melting point: 171 to 173 °C

## COc1cc2nccc(Oc3ccc(NC(=O)C4(C(=O)Nc5ccc(F)cc5)CC4)cc3)c2cc1OC [XL184, Cabozantinib, reference compound]
c-MET [5]
  IC50: 0.0013 µM
[2]
  IC50: 49.1 ± 0.25 µM
